# Results: the supplement of paper PMC10307832
# Key:
# Experiment in all cases: relative viability (nuclei count vs DMSO), 5 days (fraction); higher = more cells survive
# RU-SKI 43 + Alpelisib = compound: CC[C@@H](C)CNCC(=O)N1CCC2=C([C@@H]1COC3=CC=CC(=C3)C)C=CS2 [RU-SKI 43] + Cc1nc(NC(=O)N2CCC[C@H]2C(N)=O)sc1-c1ccnc(C(C)(C)C(F)(F)F)c1 [Alpelisib] (partner 2 µM)
# How it was run: (§1)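 Cells from lung cancer lines were seeded into 1536-well plates and, one day later, dosed by pin tool. Treatments were either a single drug or a fixed dose of an anchor drug with five library-drug doses (not always all listed) in √10 steps. After 5 days, nuclei were stained in a one-step fixation (final 0.05% Triton X-100, 1% formaldehyde, 1 ug/ml Hoechst) and counted on 4× images, and relative viability is the treated-to-vehicle nuclei ratio, as the median of duplicate plates.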
# Irinotecan + Pemetrexed = compound: CCc1c2c(nc3ccc(OC(=O)N4CCC(N5CCCCC5)CC4)cc13)-c1cc3c(c(=O)n1C2)COC(=O)[C@]3(O)CC [Irinotecan] + Nc1nc2[nH]cc(CCc3ccc(C(=O)N[C@@H](CCC(=O)O)C(=O)O)cc3)c2c(=O)[nH]1 [Pemetrexed] (partner 0.2 µM)
# How it was run: as §1
# Irinotecan + OSI-027 = compound: CCc1c2c(nc3ccc(OC(=O)N4CCC(N5CCCCC5)CC4)cc13)-c1cc3c(c(=O)n1C2)COC(=O)[C@]3(O)CC [Irinotecan] + COc1cccc2cc(-c3nc([C@H]4CC[C@H](C(=O)O)CC4)n4ncnc(N)c34)[nH]c12 [OSI-027] (partner 0.5 µM)
# How it was run: as §1
# RU-SKI 43 + Dasatinib = compound: CC[C@@H](C)CNCC(=O)N1CCC2=C([C@@H]1COC3=CC=CC(=C3)C)C=CS2 [RU-SKI 43] + Cc1nc(Nc2ncc(C(=O)Nc3c(C)cccc3Cl)s2)cc(N2CCN(CCO)CC2)n1 [Dasatinib] (partner 0.075 µM)
# How it was run: as §1
Cell Line,relative viability (RU-SKI 43 + Alpelisib; first compound 0.1 µM),relative viability (RU-SKI 43 + Alpelisib; first compound 0.3162 µM),relative viability (RU-SKI 43 + Alpelisib; first compound 1 µM),relative viability (RU-SKI 43 + Alpelisib; first compound 3.162 µM),relative viability (RU-SKI 43 + Alpelisib; first compound 10 µM),relative viability (Irinotecan + Pemetrexed; first compound 0.6325 µM),relative viability (Irinotecan + Pemetrexed; first compound 2 µM),relative viability (Irinotecan + Pemetrexed; first compound 6.325 µM),relative viability (Irinotecan + Pemetrexed; first compound 20 µM),relative viability (Irinotecan + OSI-027; first compound 0.6325 µM),relative viability (Irinotecan + OSI-027; first compound 2 µM),relative viability (Irinotecan + OSI-027; first compound 6.325 µM),relative viability (Irinotecan + OSI-027; first compound 20 µM),relative viability (RU-SKI 43 + Dasatinib; first compound 0.1 µM),relative viability (RU-SKI 43 + Dasatinib; first compound 0.3162 µM),relative viability (RU-SKI 43 + Dasatinib; first compound 1 µM),relative viability (RU-SKI 43 + Dasatinib; first compound 3.162 µM),relative viability (RU-SKI 43 + Dasatinib; first compound 10 µM)
NCI-H1651,1.08,1.25,0.953,0.926,0.936,0.25,0.638,0.356,0.147,0.532,0.485,0.349,0.174,0.439,0.393,0.412,0.332,0.491
NCI-H1355,0.826,0.877,0.924,0.956,0.921,,0.968,0.656,0.319,,0.375,0.269,0.25,0.674,0.868,0.781,0.761,0.739
NCI-H1563,0.862,0.925,0.903,0.853,0.862,0.649,0.777,0.756,0.671,0.704,0.843,0.865,0.589,0.4,0.409,0.534,0.404,0.467
NCI-H1650,,,,,,0.365,0.373,0.282,0.111,,0.902,0.575,0.196,0.356,0.362,0.373,0.36,0.279
HCC-78,0.349,0.325,0.378,0.436,0.29,0.87,0.99,0.897,0.94,0.37,0.35,0.229,0.235,0.457,0.349,0.607,0.319,0.369
NCI-H1437,0.945,1.26,0.964,1.07,0.921,0.319,0.315,0.312,0.265,0.797,0.722,0.378,0.184,0.541,0.452,0.472,0.452,0.377
BEN,1.04,1.13,1.07,1.06,1,0.535,0.828,0.415,0.485,0.296,0.271,0.31,0.255,0.333,0.253,0.474,0.272,0.316
LCLC-103H,0.941,1.06,1.05,1.14,0.91,0.477,0.471,0.508,0.516,0.483,0.496,0.339,0.347,0.502,0.481,0.64,0.453,0.49
NCI-H1915,0.991,1.14,1.12,1.05,1.04,0.352,0.349,0.187,0.132,0.303,0.295,0.216,0.346,0.337,0.331,0.357,0.306,0.318
NCI-H2085,0.93,1.02,1.09,1.01,0.845,0.661,0.915,0.826,0.468,0.435,0.71,0.568,0.495,0.24,0.247,0.275,0.234,0.262
NCI-H23,0.648,0.796,0.81,0.697,0.628,0.484,0.597,0.268,0.256,0.327,0.603,0.176,0.288,0.691,0.809,0.797,0.868,0.515
EPLC-272H,1.12,0.968,0.987,,0.948,0.351,0.321,0.292,0.268,0.224,0.268,0.165,0.249,0.267,0.351,0.317,0.317,0.321
EBC-1,0.784,0.92,0.925,0.799,0.68,,,,,,,,,,,,,
SK-MES-1,0.893,0.879,1.01,1.15,0.892,0.839,0.808,0.312,0.142,0.428,0.538,0.434,0.15,0.336,0.358,0.357,0.342,0.388
A549,0.991,0.957,0.738,0.772,0.621,,,,,,,,,,,,,
NCI-H2126,0.769,0.82,0.825,0.831,0.727,0.414,0.606,0.456,0.383,,0.601,0.457,0.427,0.65,0.652,0.681,0.67,0.586
NCI-H2087,1,1.4,1.12,1.11,0.788,0.489,0.197,0.172,0.195,0.239,0.339,0.157,0.166,0.998,1.48,0.866,0.938,0.943
EMC-BAC-2,0.769,0.752,0.762,0.733,0.893,0.389,0.393,0.312,0.244,0.316,0.331,0.274,0.287,0.334,0.299,0.362,0.317,0.296
SW 900,,,,,,,0.538,0.36,0.406,0.298,0.632,0.4,0.424,0.565,0.679,0.769,0.46,0.423
NCI-H1623,,,,,,,,,,0.415,0.415,0.303,0.294,0.513,0.514,0.668,0.541,0.468
NCI-H647,1.2,1.56,1.51,1.11,1.1,0.165,0.154,0.153,0.105,0.564,0.634,0.277,0.183,0.155,0.226,0.223,0.192,0.135

Cell Line,relative viability (RU-SKI 43 + Alpelisib; first compound 0.1 µM),relative viability (RU-SKI 43 + Alpelisib; first compound 0.3162 µM),relative viability (RU-SKI 43 + Alpelisib; first compound 1 µM),relative viability (RU-SKI 43 + Alpelisib; first compound 3.162 µM),relative viability (RU-SKI 43 + Alpelisib; first compound 10 µM),relative viability (Irinotecan + Pemetrexed; first compound 0.6325 µM),relative viability (Irinotecan + Pemetrexed; first compound 2 µM),relative viability (Irinotecan + Pemetrexed; first compound 6.325 µM),relative viability (Irinotecan + Pemetrexed; first compound 20 µM),relative viability (Irinotecan + OSI-027; first compound 0.6325 µM),relative viability (Irinotecan + OSI-027; first compound 2 µM),relative viability (Irinotecan + OSI-027; first compound 6.325 µM),relative viability (Irinotecan + OSI-027; first compound 20 µM),relative viability (RU-SKI 43 + Dasatinib; first compound 0.1 µM),relative viability (RU-SKI 43 + Dasatinib; first compound 0.3162 µM),relative viability (RU-SKI 43 + Dasatinib; first compound 1 µM),relative viability (RU-SKI 43 + Dasatinib; first compound 3.162 µM),relative viability (RU-SKI 43 + Dasatinib; first compound 10 µM)
NCI-H520,0.968,1.01,1.09,0.918,0.793,0.509,0.277,0.273,0.167,0.292,0.316,0.218,0.192,0.188,0.233,0.297,0.272,0.191
IA-LM,1.02,0.795,0.902,0.91,0.694,,,,,,,,,,,,,
LC-2-ad,0.836,1.02,0.932,0.924,0.779,0.325,0.271,0.259,0.151,0.384,0.606,0.372,0.148,0.587,0.634,0.77,0.605,0.552
EKVX,0.79,0.949,0.828,0.946,0.839,,0.339,0.246,0.205,0.664,0.625,0.49,0.162,0.457,0.413,0.524,0.57,0.618
NCI-H2228,0.667,0.768,1.08,0.704,0.423,0.363,0.36,0.336,0.442,0.341,0.472,0.288,0.342,0.74,0.658,0.486,0.555,0.425
NCI-H596,0.395,0.481,0.508,0.6,0.482,0.471,0.608,0.595,0.748,0.579,0.927,0.728,0.581,0.635,0.646,0.62,0.653,0.587
NCI-H322M,0.85,0.852,0.833,0.891,0.794,0.568,0.659,0.518,0.266,0.414,0.479,0.521,0.216,0.256,0.238,0.255,0.249,0.259
NCI-H358,0.795,0.894,0.781,0.634,0.858,0.167,0.19,0.146,0.167,0.715,0.377,0.217,0.125,0.166,0.127,0.131,0.151,0.167
NCI-H1648,,,,,,0.703,0.68,0.453,0.423,0.238,0.242,0.255,0.268,,,,,
NCI-H1395,1.14,1.38,0.936,1.29,0.836,,0.754,0.518,0.246,0.352,0.561,0.45,0.438,0.4,0.375,0.437,0.37,0.456
NCI-H1993,0.655,0.678,0.702,0.701,0.66,,0.637,0.545,0.506,0.584,0.491,0.574,0.587,0.608,0.516,0.653,0.778,0.533
CAL-12T,1.06,1.53,1.44,1.39,1.25,1.14,0.995,0.355,0.234,,0.798,0.357,0.101,0.404,0.41,0.348,0.38,0.413
ChaGo-K-1,,,,,,0.238,0.232,0.236,0.239,0.272,0.39,0.215,0.212,0.651,0.532,0.574,0.492,0.502
NCI-H1299,1.18,1.14,1.03,1.08,1.15,,,,,,,,,,,,,
NCI-H1703,0.329,0.31,0.338,0.339,0.239,,,,,,,,,,,,,
NCI-H727,0.571,0.477,0.729,0.249,0.479,,,,,0.338,0.499,0.391,0.428,0.438,0.285,0.426,0.473,0.307
NCI-H2342,,,,,,0.452,0.807,0.845,0.461,0.58,0.551,0.607,0.439,0.34,0.313,0.321,0.319,0.317
ABC-1,1.02,1.13,0.895,0.986,1.06,,,,,,0.494,0.341,0.093,0.664,0.443,0.638,0.553,0.501
HCC-44,0.73,0.72,0.901,0.875,0.802,0.617,0.721,0.549,0.488,,0.721,0.289,0.213,,,,,
NCI-H522,,,,,,0.966,0.824,0.566,0.498,1.07,0.643,0.645,0.569,0.896,0.954,1.11,1.03,0.828
Calu-6,0.994,1.14,0.994,1.03,0.989,,,,,,,,,,,,,
